# Assay results reported in US10646508B1, “Method of safely administering nitrate dietary supplements and compositions” (ThermoLife International, LLC, priority 2007, dated 2020).
# Experiments:
# [1] = Intrinsic dissolution profiles (modified Wood's apparatus, USP type II); format: physicochemical
# Protocol: Objective: The objective of this study was to determine the dissolution characteristics of three different forms of commercially available Creatine including Creatine nitrate (CN), Creatine monohydrate (CM) and buffered Creatine (BC) under different temperature and pH. Methods: Intrinsic dissolution studies were carried out at 37° C. and room temperature in pH 2.5 and 7.4 buffer using modified Wood's apparatus. CN, CM and BC samples (˜0.5 g) were compressed in the dies with constant surface area of 1.21 cm2 using a Carver press at 2000 psi with a dwell time of 10 sec. These dies were placed in the USP dissolution apparatus (type II) containing 140 ml of dissolution media, with paddle speed of 50 rpm. Dissolution medium were collected at definite time intervals over a period of 3 hours for CN and 7 hours for both CM and BC and analyzed for Creatine using a validated HPLC method. Results: A plot of the amount of Creatine dissolved (mg)/surface area (cm2) versus time gives the slope (k′) which is directly proportional to the dissolution rate constant. The k′ (mg/cm2 hr) values for CN, CM and BC in pH 2.5 buffer at room temperature were 293.0±3.48, 59.1±2.06 and 71.1±0.59. At 37° C. these k′ (mg/cm2 hr) values were 327.3±2.66, 97.9±0.88 and 117.9±1.12, respectively. In pH 7.4 buffer, the k′ (mg/cm2 hr) values for CN, CM and BC were 278.9±14.6, 52.1±0.22 and 50.6±0.95 at room temperature and 319.5±14.3, 86.0±5.05 and 96.9±9.28 at 37° C., respectively. Conclusions: The dissolution rates of all three Creatine forms were higher at 37° C. as compared to at room temperature. […] However, the dissolution rate of CN was not affected by the pH of the dissolution media. […] Results of this study further predict a better bioavailability of CN as compared to CM and BC.
# [2] = Chemical stability of Creatine forms in solution; format: physicochemical; conditions: for degradation rate constant (k): ~10 mg/ml; for pH of samples, initial: start of storage
# Protocol: Methods: A known concentration (˜10 mg/ml) of CN, CM and BC were prepared in both pH 2.5 and pH 6.8 buffer and stored in stability chambers in screw-capped bottles at 37° C. and 40° C., respectively. Samples were collected at predetermined time points and analyzed for Creatine and degradation products if any, using a validated HPLC method. Changes in the pH, clarity and color of the samples were also determined. The order of degradation and rate constant were determined by graphical method. Results: The degradation rate constants (k) for CN, CM and BC at 37° C. in pH 2.5 buffer were 0.075±0.001, 0.119±0.011 and 0.108±0.002 (day-1) while that at 40° C. in pH 6.8 buffer were 0.115±0.001, 0.015±0.001 and 0.013±0.002 (day-1), respectively. The pH of CN samples at 40° C. in pH 6.8 buffer changed from 2.83±0.01 to 4.31±0.01 within a period of 12 days. The pH changes noticed at 37° C. in pH 2.5 buffer samples over the same period of time for CM, and BC were 3.08±0.01 to 4.12±0.01 and 3.11±0.01 and 4.16±0.01, respectively. […] No change in the color and the clarity was noticed over 12 days. Conclusions: All the Creatine samples followed first order degradation kinetics under both these experimental conditions. […] The major degradation product detected was Creatinine. For CN the increase in pH was higher at 40° C. in pH 6.8 buffer as compared to 37° C. in pH 2.5 buffer. However, opposite effect was noticed for both CM and BC.
# [3] = pH 2.5 buffer, room temperature
# [4] = pH 7.4 buffer, room temperature
SMILES,"k' (slope, proportional to intrinsic dissolution rate constant) ([1]; pH 2.5 buffer, 37° C.)","k' (slope, proportional to intrinsic dissolution rate constant) [1, 3]","k' (slope, proportional to intrinsic dissolution rate constant) ([1]; pH 7.4 buffer, 37° C.)","k' (slope, proportional to intrinsic dissolution rate constant) [1, 4]",degradation rate constant (k) ([2]; 37° C. in pH 2.5 buffer),"pH of samples, initial ([2]; 40° C. in pH 6.8 buffer)","pH of samples, after storage ([2]; 40° C. in pH 6.8 buffer, within a period of 12 days)",degradation rate constant (k) ([2]; 40° C. in pH 6.8 buffer),"pH of samples, after storage ([2]; 37° C. in pH 2.5 buffer, over 12 days)","pH of samples, initial ([2]; 37° C. in pH 2.5 buffer)"
"CN(CC(=O)O)C(=N)N.O=[N+]([O-])O [CN, Creatine nitrate]",327.3±2.66 mg/cm2 hr,293.0±3.48 mg/cm2 hr,319.5±14.3 mg/cm2 hr,278.9±14.6 mg/cm2 hr,0.075 ± 0.001 day⁻¹,2.83±0.01,4.31±0.01,0.115 ± 0.001 day⁻¹,,
"CN(CC(=O)O)C(=N)N.O [CM, Creatine monohydrate, reference compound]",97.9±0.88 mg/cm2 hr,59.1±2.06 mg/cm2 hr,86.0±5.05 mg/cm2 hr,52.1±0.22 mg/cm2 hr,,,,,4.12±0.01,3.08±0.01
